{
  "source": "paper PMC4527713",
  "about": "“An IPTG Inducible Conditional Expression System for Mycobacteria” (PLoS ONE, 2015)",
  "biological_target": "T1, RpoB (β subunit of RNA polymerase) (Mycolicibacterium smegmatis, UniProt P60281)",
  "T1 construct": "with RNA polymerase (multimeric enzyme)",
  "T1 sequence (P60281 1-1169)": "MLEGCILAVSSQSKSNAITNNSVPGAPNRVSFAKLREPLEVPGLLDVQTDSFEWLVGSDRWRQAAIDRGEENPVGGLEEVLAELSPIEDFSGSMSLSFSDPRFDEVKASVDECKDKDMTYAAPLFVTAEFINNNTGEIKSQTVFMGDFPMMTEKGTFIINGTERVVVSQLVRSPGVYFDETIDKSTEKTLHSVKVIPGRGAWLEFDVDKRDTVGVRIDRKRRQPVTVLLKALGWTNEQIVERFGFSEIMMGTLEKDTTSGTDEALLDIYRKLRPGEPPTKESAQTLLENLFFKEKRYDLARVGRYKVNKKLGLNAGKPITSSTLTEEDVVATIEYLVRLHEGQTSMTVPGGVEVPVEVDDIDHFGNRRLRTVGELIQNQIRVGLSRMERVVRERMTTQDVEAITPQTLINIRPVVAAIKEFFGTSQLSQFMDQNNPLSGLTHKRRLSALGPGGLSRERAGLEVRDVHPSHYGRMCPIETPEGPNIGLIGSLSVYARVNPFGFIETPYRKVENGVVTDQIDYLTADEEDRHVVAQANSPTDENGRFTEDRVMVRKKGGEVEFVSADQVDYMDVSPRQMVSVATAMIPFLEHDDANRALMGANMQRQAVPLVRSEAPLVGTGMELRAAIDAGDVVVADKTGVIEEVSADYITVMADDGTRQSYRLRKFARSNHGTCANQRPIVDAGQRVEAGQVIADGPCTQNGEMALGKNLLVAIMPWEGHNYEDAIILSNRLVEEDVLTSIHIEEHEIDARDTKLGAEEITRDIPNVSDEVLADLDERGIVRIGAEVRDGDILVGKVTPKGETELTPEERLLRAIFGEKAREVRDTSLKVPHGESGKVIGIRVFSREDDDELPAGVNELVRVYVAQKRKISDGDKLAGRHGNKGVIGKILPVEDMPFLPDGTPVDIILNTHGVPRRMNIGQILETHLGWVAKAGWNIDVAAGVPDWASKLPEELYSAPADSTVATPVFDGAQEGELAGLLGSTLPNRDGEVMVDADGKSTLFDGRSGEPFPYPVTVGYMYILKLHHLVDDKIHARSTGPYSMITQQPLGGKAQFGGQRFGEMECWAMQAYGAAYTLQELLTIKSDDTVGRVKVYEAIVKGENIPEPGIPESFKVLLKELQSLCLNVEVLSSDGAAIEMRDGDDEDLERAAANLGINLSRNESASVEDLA",
  "test": "MIC shift in rpoB knockdown strain ([…]; no shift in inhA knockdown); also reference inhibitor in the screens, IC50 not given",
  "format": "cell-based",
  "data": [
    {"compound": "CO[C@H]1/C=C/O[C@@]2(C)Oc3c(C)c(O)c4c(O)c(c(/C=N/N5CCN(C)CC5)c(O)c4c3C2=O)NC(=O)/C(C)=C\\C=C\\[C@H](C)[C@H](O)[C@@H](C)[C@@H](O)[C@@H](C)[C@H](OC(C)=O)[C@@H]1C", "note": "[rifampicin]", "values": [
      {"measurement": "MIC shift in rpoB knockdown strain (8 to 0.5 μg/ml; no shift in inhA knockdown);", "result": "modulation in MIC of rifampicin and isoniazid are due to the reduction in the respective target protein levels"}
    ]}
  ]
}
